Results published in US11427549B2, “Pyrimidinyloxy benzo-fused compounds as herbicides” (FMC Corporation, priority 2017, dated 2022).

Legend:
[1] = system: foxtail, giant (giant foxtail, Setaria faberii); test: Test A postemergence, foxtail, giant; type: in vivo; conditions: Setaria faberi, post-emergence, 240 h, 0 to 100 scale (0 no effect, 100 complete control), read-out: Plant response rating, Foxtail, Giant; for pest or weed control at 31 g/ha: 31 g ai/ha; for pest or weed control at 125 g/ha: 125 g ai/ha
Excerpt: (§1) Seeds of plant species selected from barnyardgrass (Echinochloa crus-galli), kochia (Kochia scoparia), ragweed (common ragweed, Ambrosia elatior), ryegrass, Italian (Italian ryegrass, Lolium multiflorum), foxtail, giant (giant foxtail, Setaria faberii), foxtail, green (green foxtail, Setaria viridis) and pigweed (Amaranthus retroflexus) were planted into a blend of loam soil and sand and treated preemergence with a directed soil spray using test chemicals formulated in a non-phytotoxic solvent mixture which included a surfactant.
(§2) At the same time, plants selected from these weed species and also wheat (Triticum aestivum), corn (Zea mays), blackgrass (Alopecurus myosuroides), and galium (catchweed bedstraw, Galium aparine) were planted in pots containing the same blend of loam soil and sand and treated with postemergence applications of test chemicals formulated in the same manner. Plants ranged in height from 2 to 10 cm and were in the one- to two-leaf stage for the postemergence treatment. Treated plants and untreated controls were maintained in a greenhouse for approximately 10 days, after which time all treated plants were compared to untreated controls and visually evaluated for injury. […] A dash (-) response means no test result.

[2] = system: foxtail, giant (giant foxtail, Setaria faberii); test: Test A preemergence, foxtail, giant; type: in vivo; conditions: Setaria faberi, pre-emergence, 240 h, 0 to 100 scale (0 no effect, 100 complete control), read-out: Plant response rating, Foxtail, Giant; for pest or weed control at 31 g/ha: 31 g ai/ha; for pest or weed control at 125 g/ha: 125 g ai/ha
Excerpt: as §1, §2

[3] = system: foxtail, green (green foxtail, Setaria viridis); test: Test A postemergence, foxtail, green; type: in vivo; conditions: Setaria, post-emergence, 240 h, 0 to 100 scale (0 no effect, 100 complete control), read-out: Plant response rating, Foxtail, Green
Excerpt: as §1, §2

| SMILES | melting point [°C] | pest or weed control at 31 g/ha [1] [%] | pest or weed control at 125 g/ha [1] [%] | pest or weed control at 31 g/ha [2] [%] | pest or weed control at 125 g/ha [2] [%] | pest or weed control at 31 g/ha ([3]; 31 g ai/ha) [%] | pest or weed control at 125 g/ha ([3]; 125 g ai/ha) [%] |
| --- | --- | --- | --- | --- | --- | --- | --- |
| O=C1Cc2cccc(Oc3ncc(Cl)cn3)c2C(CCCC(F)(F)F)O1 (stereo not drawn) [Compound 17, 8-[(5-Chloro-2-pyrimidinyl)oxy]-1,4-dihydro-1-(4,4,4-trifluorobutyl)-3H-2-benzopyran-3-one] | 125 to 129 | 20 | 40 | 10 | 70 |  |  |
| O=C1O[C@@H](CCC(F)(F)F)c2c(Oc3ncc(Cl)cn3)cccc21 [Compound 18, (3S)-4-[(5-Chloro-2-pyrimidinyl)oxy]-3-(3,3,3-trifluoropropyl)-1(3H)-isobenzofuranone] | 99 to 101 | 0 | 0 | 0 | 0 |  |  |
| O=C1O[C@H](CCC(F)(F)F)c2c(Oc3ncc(Cl)cn3)cccc21 [Compound 19, (3R)-4-[(5-Chloro-2-pyrimidinyl)oxy]-3-(3,3,3-trifluoropropyl)-1(3H)-isobenzofuranone] | 94 to 99 | 60 | 90 | 100 | 100 |  |  |
| O=C1OC(CCC(F)(F)F)Cc2c(Oc3ncc(Cl)cn3)cccc21 (stereo not drawn) [Compound 23, 5-[(5-Chloro-2-pyrimidinyl)oxy]-3,4-dihydro-3-(3,3,3-trifluoropropyl)-1H-2-benzopyran-1-one] | 117 to 121 | 0 | 10 | 0 | 40 |  |  |

The next lines start with results.

| melting point [°C] | SMILES | pest or weed control at 31 g/ha [1] [%] | pest or weed control at 125 g/ha [1] [%] | pest or weed control at 31 g/ha [2] [%] | pest or weed control at 125 g/ha [2] [%] | pest or weed control at 31 g/ha ([3]; 31 g ai/ha) [%] | pest or weed control at 125 g/ha ([3]; 125 g ai/ha) [%] |
| --- | --- | --- | --- | --- | --- | --- | --- |
| 122 to 126 | O=C1Cc2cccc(Oc3ncc(Cl)cn3)c2C(CCC(F)(F)F)O1 (stereo not drawn) [Compound 28, 8-[(5-Chloro-2-pyrimidinyl)oxy]-1,4-dihydro-1-(3,3,3-trifluoropropyl)-3H-2-benzopyran-3-one] | 10 | 20 | 10 | 100 |  |  |
| 93 to 97 | O=C1OC(CCCCC(F)(F)F)Cc2c(Oc3ncc(Cl)cn3)cccc21 (stereo not drawn) [Compound 31, 5-[(5-Chloro-2-pyrimidinyl)oxy]-3,4-dihydro-3-(5,5,5-trifluoropentyl)-1H-2-benzopyran-1-one] | 0 | 0 | 0 | 0 |  |  |
| 136 to 140 | CCCC1OC(=O)Cc2cccc(Oc3ncc(Cl)cn3)c21 (stereo not drawn) [Compound 35, 8-[(5-Chloro-2-pyrimidinyl)oxy]-1,4-dihydro-1-propyl-3H-2-benzopyran-3-one] |  |  |  |  | 10 | 10 |
